{"source": "patent US5925369A", "about": "“Bis alkanoyl esters of carnitine having bactericidal, fungicidal and antiprotozoal activity” (priority 1996, dated 1999)", "key": {"[1]": {"system": "Gram positive bacteria", "assay": "MIC on Gram positive bacteria (all strains)", "format": "cell-based", "method": "(§1) Bacterial suspensions are prepared from an overnight culture in Mueller-Hinton broth and are adjusted, in the same medium, to a final concentration of 5.0×10^4 cells/ml in each well of a 96-well microtiter plate. Substance dilutions (0.3 log) in Mueller-Hinton broth are added to the suspensions in order to have a range of final concentrations from 0.19 to 100 mcg/ml.\n(§2) Microtiters are then incubated at 37° C. for 18 hours. (See L. D. THRUPP, Susceptibility testing of antibiotics in liquid media, in: Antibiotics in laboratory medicine. V. LORIAN Ed., II edition, 4, 93-150, Williams & Wilkins, Baltimora, Md. 21202 U.S.A.)."}, "[2]": {"system": "E. aerogenes", "assay": "MIC on Gram negative bacteria", "format": "cell-based", "settings": "Klebsiella aerogenes; E. aerogenes UM, lab collection; read-out: Minimal Inhibitory Concentration", "method": "as §1, §2"}, "[3]": {"system": "E. coli (Escherichia coli)", "assay": "MIC on Gram negative bacteria", "format": "cell-based", "settings": "read-out: Minimal Inhibitory Concentration", "method": "as §1, §2"}, "[4]": {"system": "Enterobacter cloacae", "assay": "MIC on Gram negative bacteria", "format": "cell-based", "settings": "Enterobacter cloacae SG 3 II, clinical isolate; read-out: Minimal Inhibitory Concentration", "method": "as §1, §2"}, "[5]": {"system": "S. typhimurium", "assay": "MIC on Gram negative bacteria", "format": "cell-based", "settings": "Salmonella enterica; S. typhimurium DS, lab collection; read-out: Minimal Inhibitory Concentration", "method": "as §1, §2"}, "[6]": {"system": "bacteria and fungi", "settings": "bactericidal (EP-A-0 552 137) and fungicidal (EP-A-0 552 138); cited from earlier work"}, "[7]": {"system": "T. mentagrophytes IDI D1049", "assay": "Antifungal activity in experimental Tinea pedis in the guinea-pig paw", "format": "in vivo, Hartley guinea-pig", "settings": "for A (clinical sign score) / D (clinical sign score) / E (clinical sign score): scale 0-3; for sterile samples (%) / sterile samples (n = 30), number over total: 20 days once a day, day +31", "source_text": "Twelve male Hartley guinea-pig (C. RIVER), weighing 350-400 gr, have been utilized (3 animals per experimental group).\nOne clinical isolate (Tricophyton mentagrophytes IDI D 1049, from Immacolata Dermatological Institute of Rome) was utilized.\nMicroaleuriospores were first harvested by scraping from a 7-day fungal culture grown in Potato dextrose agar, and then resuspended in Sabouraud broth with 0.5% Tween 80.\nAfter washing, the spores were standardized in sterile saline to yield a final concentration of 1.0×10^8 spores/ml.\nEach group included 3 animals, and only the left hind paw was inoculated. For the 2 control groups, 3 animals in total were used, as both hind paws of each animal were inoculated.\nFilter paper discs (12-mm diameter and 0.3-mm thickness) were covered with aluminum foil in the lower part to prevent the inoculum spreading. This filter was then sticked to a 1×3-cm piece of biadesive plaster, which adhered to a gauze wrapped around the paw.\nThe filter paper disc was then wetted with 100 μl of the infective suspension, and subsequently fixed to the guinea-pig paw.\nThe animal paw was tied up with bandage and plaster, and then left in these conditions for 7 days.\nSeven days after infection, the infected areas were uncovered and the type of lesion was graded according to an arbitrary scale, as follows:\nThese \"clinical\" signs were examined again on days +14, +21, and +31 (day of sacrifice of animals). Three days following the first observation of the type of lesion (day +10), treatments with the differrent formulations were started, and they went on for 20 days (once a day). Two days following the last treatment (day +31), animals were sacrificed and plantar areas of the paws were dissected into 10 parts for each paw.\nThese sections were plated onto Mycobiotic agar supplemented with Penicillin G and Streptomicin (100 mcg/ml). Volumes of 50 μl of both antibiotics were then added to the plantar sections to prevent any bacterial growth that might interfere with the growth of T. mentagrophytes in the samples under examination.\nThe data obtained were expressed as the number of microbiologically sterile cutaneous sections over the total examined sections."}, "[8]": {"settings": "Escherichia coli SG 4 II, clinical isolate"}}, "note": "Read-outs that look alike come from different tables or passages of the source.", "data": [{"smiles": "CCCCCCCCCCCOC(=O)C[C@H](C[N+](C)(C)C)OC(=O)CC(C)C", "note": "[ST 1103, isovaleryl L-carnitine undecyl ester methanesulfonate, reference compound]", "values": [{"measurement": "MIC", "setting": "[1]; clinical isolates, 10 strains", "value": 3.9, "unit": "µg/mL"}, {"measurement": "MIC", "setting": "[1]; lab collection, 5 strains", "value": 4.06, "unit": "µg/mL"}, {"measurement": "MIC", "setting": "[2]", "value": 25, "unit": "µg/mL"}, {"measurement": "MIC", "setting": "[3]; E. coli 92 F, lab collection", "value": 25, "unit": "µg/mL"}, {"measurement": "MIC", "setting": "[3]; [8]", "value": 25, "unit": "µg/mL"}, {"measurement": "MIC", "setting": "[4]", "value": 25, "unit": "µg/mL"}, {"measurement": "MIC", "setting": "[5]", "value": 25, "unit": "µg/mL"}, {"measurement": "activity among the known compounds", "setting": "[6]", "value": "most active both as bactericidal and fungicidal agent"}]}, {"smiles": "CCCCCCCCCCC(=O)O[C@H](CC(=O)OCc1ccc(COC(=O)C[C@H](C[N+](C)(C)C)OC(=O)CCCCCCCCCC)cc1)C[N+](C)(C)C", "note": "[ST 1226, bis(undecanoyl L-carnitine chloride)p-xylilene diester]", "values": [{"measurement": "MIC", "setting": "[2]", "value": 6.25, "unit": "µg/mL"}, {"measurement": "MIC", "setting": "[3]; E. coli 92 F, lab collection", "value": 25, "unit": "µg/mL"}, {"measurement": "MIC", "setting": "[3]; [8]", "value": 12.5, "unit": "µg/mL"}, {"measurement": "MIC", "setting": "[4]", "value": 12.5, "unit": "µg/mL"}, {"measurement": "MIC", "setting": "[5]", "value": 25, "unit": "µg/mL"}, {"measurement": "microbiological recovery", "setting": "[7]; 1% ST 1226", "value": 80, "unit": "%"}, {"measurement": "A (clinical sign score)", "setting": "[7]; 1%, 7th day", "value": 0}, {"measurement": "D (clinical sign score)", "setting": "[7]; 1%, 7th day", "value": 0}, {"measurement": "E (clinical sign score)", "setting": "[7]; 1%, 7th day", "value": 0}, {"measurement": "A (clinical sign score)", "setting": "[7]; 1%, 14th day", "value": 0}, {"measurement": "D (clinical sign score)", "setting": "[7]; 1%, 14th day", "value": 0}, {"measurement": "E (clinical sign score)", "setting": "[7]; 1%, 14th day", "value": 0}, {"measurement": "A (clinical sign score)", "setting": "[7]; 1%, 21st day", "value": 0}, {"measurement": "D (clinical sign score)", "setting": "[7]; 1%, 21st day", "value": 0}, {"measurement": "E (clinical sign score)", "setting": "[7]; 1%, 21st day", "value": 0}, {"measurement": "A (clinical sign score)", "setting": "[7]; 1%, 31st day", "value": 0}, {"measurement": "D (clinical sign score)", "setting": "[7]; 1%, 31st day", "value": 0}, {"measurement": "E (clinical sign score)", "setting": "[7]; 1%, 31st day", "value": 0}, {"measurement": "sterile samples (%)", "setting": "[7]; 1%", "value": 80, "unit": "%"}, {"measurement": "sterile samples (n = 30), number over total", "setting": "[7]; 1%", "value": "24/30"}, {"measurement": "microbiological recovery", "setting": "[7]; 1.5% ST 1226", "value": 100, "unit": "%"}, {"measurement": "A (clinical sign score)", "setting": "[7]; 1.5%, 7th day", "value": 0}, {"measurement": "D (clinical sign score)", "setting": "[7]; 1.5%, 7th day", "value": 0}, {"measurement": "E (clinical sign score)", "setting": "[7]; 1.5%, 7th day", "value": 0}, {"measurement": "A (clinical sign score)", "setting": "[7]; 1.5%, 14th day", "value": 0}, {"measurement": "D (clinical sign score)", "setting": "[7]; 1.5%, 14th day", "value": 0}, {"measurement": "E (clinical sign score)", "setting": "[7]; 1.5%, 14th day", "value": 0}, {"measurement": "A (clinical sign score)", "setting": "[7]; 1.5%, 21st day", "value": 0}, {"measurement": "D (clinical sign score)", "setting": "[7]; 1.5%, 21st day", "value": 0}, {"measurement": "E (clinical sign score)", "setting": "[7]; 1.5%, 21st day", "value": 0}, {"measurement": "A (clinical sign score)", "setting": "[7]; 1.5%, 31st day", "value": 0}, {"measurement": "D (clinical sign score)", "setting": "[7]; 1.5%, 31st day", "value": 0}, {"measurement": "E (clinical sign score)", "setting": "[7]; 1.5%, 31st day", "value": 0}, {"measurement": "sterile samples (%)", "setting": "[7]; 1.5%", "value": 100, "unit": "%"}, {"measurement": "sterile samples (n = 30), number over total", "setting": "[7]; 1.5%", "value": "20/20"}]}]}
